# Laboratory results taken from article PMC10292217, “Gene-nutrient interactions that impact magnesium homeostasis increase risk for neural tube defects in mice exposed to dolutegravir” (Frontiers in Cell and Developmental Biology, 2023).
# Read-outs that look alike come from different tables or passages of the source. Marks after values point to notes of the source that are not given here.
# How the values were obtained:
# FOLR1 = system: FOLR1; design: method as in Cabrera et al., 2019; settings: human placental trophoblast cells; ref Cabrera et al., 2019; cited from earlier work
# [1] = system: human embryonic stem cell (hESC) lines; design: method as in Smith et al., 2022; settings: 2 different hESC lines; ref Smith et al., 2022; cited from earlier work
# [2] = ref Zash et al., cited from earlier work
# rabbits = settings: 2020, cited from earlier work
# zebrafish embryos = settings: exposure initiated at 3 h post-fertilization; ref Cabrera et al., 2019; cited from earlier work
# [3] = cited from earlier work
# SWV mice = assay: DTG-NTD susceptibility, embryo phenotyping on GD 9.5, SWV dams; type: in vivo, mouse
# From the text: (§1) Breeding colonies and experimental mice were housed in Thoren micro-isolator cages with autoclaved corncob bedding and maintained on a 12-h light-dark cycle in climate-controlled AAALAC-accredited animal facilities at Creighton University. Mice were given ad libitum access to autoclaved water and pelleted irradiated rodent chow. For timed matings, nulliparous female mice were placed with a male overnight (1 male:2-3 females). The presence of a vaginal plug the next morning was considered GD 0.5. Plugged females were weighed, placed into a separate cage, and randomly assigned to a treatment group. All animal procedures were performed in accordance with the Public Health Service (PHS) policy on Humane Care and Use of Laboratory Animals and approved by the Creighton University Institutional Animal Care and Use Committee (IACUC).
# (§2) Dolutegravir (CAS 1051375-16-6, GSK1349572) was purchased from MedKoo Biosciences (Morrisville, NC). Pregnant mice were dosed with vehicle (dimethylsulfoxide: Solutol®: 50 mM N-methylglucamine in 3% mannitol [1:1:8, v:w:v]) ([Moss et al., 2015]) or DTG (500 mg/kg or 750 mg/kg) by daily oral gavage beginning on GD 0.5 and continuing until the day of sacrifice (GD 9.5). All treatments were administered in a volume of 0.1 mL/10 g bodyweight (bwt).
# (§3) The SWV and LM/Bc breeding colonies have been maintained on Envigo Rodent Chow #8904 (a soy protein-based irradiated diet) for >20 years. C3H/HeJ and C57BL/6J mice (6–10 weeks old) were immediately placed on Envigo #8904 upon arrival at Creighton University and were maintained on this diet for a minimum of 1 month prior to analysis of basal plasma and urine cations. The National Research Council (NRC) estimate for the minimum Mg^2+ requirement in adult mice is […] of diet (0.05%). Magnesium in standard rodent diets ranges between […]; the Envigo #8904 soy diet contains .3% Mg^2+ by weight ([…] the NRC requirement) and was therefore considered a ‘high’ Mg^2+ diet. Sources of Mg^2+ in the soy diet include magnesium oxide (∼20%) and Mg^2+ found naturally in grain ingredients (∼80%); it was therefore not possible to remove Mg^2+ to create a soy-based version that was Mg^2+ deficient. To test the hypothesis that low maternal plasma Mg^2+ prior to conception would increase susceptibility to DTG-induced NTDs, it was necessary to switch to casein-based purified ingredient diets with defined levels of Mg^2+ added back. The following casein-based purified ingredient diets were selected as experimental diets: TD.120,574 high Mg^2+ diet (.3% Mg^2+ oxide added to match the .3% high Mg^2+ soy-based diet); TD.98341 control Mg^2+ diet with 0.05% Mg oxide added back to match the NRC requirement; and TD.93106 Mg^2+-deficient diet (<.003%, no Mg^2+ added back). The purified casein diets met or exceeded the NRC requirements for all other minerals and vitamins, including folic acid (Supplementary Table S1: Diet Comparison). Thus, the 4 experimental diets were as follows: 1) high Mg^2+ (.3%) soy diet; 2) high Mg^2+ ([…]) casein diet; 3) control Mg^2+ (.05%) casein diet; and 4) deficient Mg^2+ (<.003%) casein diet. […] Our initial DTG teratology studies were performed in mice on the high Mg^2+ soy diet. However, our objective in the second set of experiments was to reduce pre-conception plasma Mg^2+ levels prior to DTG exposure. To accomplish this objective, weaned female mice were placed on either the high Mg^2+ casein diet or one of the 2 casein-based experimental diets with reduced Mg^2+ (control or deficient) for a minimum of 2 weeks. After this minimum period of acclimation to the experimental casein-based diets, blood and urine samples were collected for Inductively Coupled Plasma Mass Spectrometry (ICP-MS) determination of Mg^2+ (and other cations).
# (§4) Pregnant dams were anesthetized with isoflurane and sacrificed by cervical dislocation on GD 9.5. […]
# hESC morphogenesis model = system: hESC morphogenesis model; design: method as in Kirkwood-Johnson et al., 2021; settings: ref Kirkwood-Johnson et al., 2021; cited from earlier work
# C57BL/6J mice = assay: DTG-NTD susceptibility, embryo phenotyping on GD 9.5, C57BL/6J dams; type: in vivo, mouse
# From the text: as §1, §2, §3, §4
# [4] = human, non-pregnant, 50 mg single dose, ref Min et al., 2010
# [5] = human, non-pregnant, 100 mg single dose, ref Min et al., 2010
# [6] = human, non-pregnant, 100 mg × 7d, ref Wang et al., 2019
# [7] = pregnant women, 2nd trimester, 50 mg/d, ref Mulligan et al., 2018
# [8] = Mg2+-deficient (<0.003%) casein diet, DTG750
# [9] = high Mg2+ (0.3%) soy diet, DTG 750 mg/kg/d oral GD 0.5-GD 9.5
# [10] = high Mg2+ (0.3%) soy diet, DTG 750 mg/kg/d oral GD 0.5-GD 9.5, average % (SD)
# [11] = high Mg2+ (0.3%) soy diet, DTG 750 mg/kg/d oral GD 0.5-GD 9.5, mean (SD)
# [12] = high Mg2+ (0.3%) soy diet, DTG 750 mg/kg/d oral GD 0.5-GD 9.5, mean (SD) per litter
smiles,measurement,setting,value
"C[C@@H]1CCO[C@H]2Cn3cc(C(=O)NCc4ccc(F)cc4F)c(=O)c(O)c3C(=O)N12 [DTG, Dolutegravir]",FOLR1-mediated uptake of folic acid,FOLR1,partially inhibited
same,effect on hESC,[1],cytotoxicity and a dose-dependent loss of pluripotency
same,NTD prevalence,"[2]; 4/426 infants exposed to DTG from conception, 2018",.94%
same,prevalence of DTG-NTDs,"[2]; follow-up study, 5/1683 deliveries, 2019",.30%
same,increase in the prevalence of NTDs,"[2]; women who began DTG prior to conception, 2018",9 fold
same,DTG-related maternal or developmental toxicity,"rabbits; oral doses up to 1000 mg/kg/d, GD 6 to GD 18, ref Stanislaus et al.",no significant evidence
same,NOAEL,"rabbits; preclinical studies, ref Stanislaus et al.",1000 mg/kg/day
same,mortality,zebrafish embryos,Significant mortality
same,AUC 0-24,[3]; [4],70.8 (50 mg single dose) ^1 µg*h/mL
same,Cmax,[3]; [4],4.6 (50 mg single dose) ^1 µg/mL
same,Tmax,[3]; [4],1.25 h (50 mg single dose) ^1
same,t½,[3]; [4],13–14 h (50 mg single dose) ^1
same,AUC 0-24,[3]; [5],131 (100 mg single dose) ^1 µg*h/mL
same,Cmax,[3]; [5],8.1 (100 mg single dose) ^1 µg/mL
same,AUC 0-24,[3]; [6],92.3 (100 mg × 7d) ^2 µg*h/mL
same,Cmax,[3]; [6],6.7 (100 mg × 7d) ^2 µg/mL
same,AUC 0-24,[3]; [7],"47.6 (33.4–63.7) (2nd trimester, 50 mg/d) ^3 µg*h/mL"
same,Cmax,[3]; [7],3.62 (2.57–4.63) µg/mL
same,Tmax,[3]; [7],"2 h (2nd trimester, 50 mg/d) ^3"
same,t½,[3]; [7],"11 h (2nd trimester, 50 mg/d) ^3"
same,NTD-affected litters,SWV mice; [8],75%
same,NTD-affected litters / litters examined,SWV mice; [8],6/8
same,NTDs per affected litter,SWV mice; [8],1-4
same,total NTDs,SWV mice; [8],11
same,Affected litters %,SWV mice; [9],7.7%
same,"Dev delay/implants, index value",SWV mice; [10],2.0% (3.19)
same,"NTDs/embryos, index value",SWV mice; [10],1.8% (6.40)
same,"NTDs/implants, index value",SWV mice; [10],1.6% (5.94)
same,"Resorptions/implants, index value",SWV mice; [10],5.0% (7.62)
same,Implants per litter,SWV mice; [11],13.15 (2.12)^**
same,Resorptions per litter,SWV mice; [11],0.62 (0.87)
same,Dev. delayed,SWV mice; [12],0.31 (0.48)
same,NTDs,SWV mice; [12],0.23 (0.83)
same,Total viable embryos,SWV mice; [12],12.54 (2.37)^**
same,NTD-affected litters / litters examined,"SWV mice; high Mg2+ soy diet, DTG750",1/13
same,total pups with exencephaly,"SWV mice; high Mg2+ soy diet, DTG750",3
same,effect on 3D morphogenesis,hESC morphogenesis model,altered growth and expression of genes involved in body patterning
same,Affected litters %,C57BL/6J mice; [9],0.0%
same,"Dev delay/implants, index value",C57BL/6J mice; [10],1.9% (4.15)
same,"NTDs/embryos, index value",C57BL/6J mice; [10],0.0% (0.00)
same,"NTDs/implants, index value",C57BL/6J mice; [10],0.0% (0.00)
same,"Resorptions/implants, index value",C57BL/6J mice; [10],5.3% (9.30)
same,Implants per litter,C57BL/6J mice; [11],9.80 (1.48)
same,Resorptions per litter,C57BL/6J mice; [11],0.50 (0.85)
same,Dev. delayed,C57BL/6J mice; [12],0.20 (0.42)
same,NTDs,C57BL/6J mice; [12],0.00 (0.00)
same,Total viable embryos,C57BL/6J mice; [12],9.30 (1.77)
same,NTDs observed,"C57BL/6J mice; high Mg2+ soy diet, DTG750, n = 10 litters",No NTDs
